This test concerns the target T1, Aurora kinase A (AURKA) (Homo sapiens, UniProt O14965).
T1 construct: endogenous in cells; host or cells: HeLa LgBit (AURKA-HiBit KI), CRISPR/Cas9 knock-in at the endogenous AURKA locus
T1 sequence (O14965 1-403): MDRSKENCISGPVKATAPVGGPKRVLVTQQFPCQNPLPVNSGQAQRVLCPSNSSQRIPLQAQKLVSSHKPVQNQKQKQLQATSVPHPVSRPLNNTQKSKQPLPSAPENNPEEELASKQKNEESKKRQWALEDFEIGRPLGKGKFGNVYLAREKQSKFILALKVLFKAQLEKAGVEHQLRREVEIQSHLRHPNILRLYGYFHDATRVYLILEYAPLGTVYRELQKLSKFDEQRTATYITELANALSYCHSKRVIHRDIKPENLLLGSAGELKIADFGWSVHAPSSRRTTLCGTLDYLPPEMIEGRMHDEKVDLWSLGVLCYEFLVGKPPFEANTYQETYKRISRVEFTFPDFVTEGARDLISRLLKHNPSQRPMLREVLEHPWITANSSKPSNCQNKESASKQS
Kind of test: Luciferase assay for AURKA in HeLa LgBit (AURKA-HiBit KI) cell line. The test is classed as cell-based. Particulars: HeLa LgBit (AURKA-HiBit KI) cells, measured after 12 hours. An excerpt: HeLa cell lines that stably express LgBit were constructed via LgBit vector transfection. Then, donor DNA and guide RNA for insertion of HiBit amino acid sequence at C-terminus of inherent Aurora kinase A (AURKA) genes were designed and constructed. Thereafter, they were transfected into the cell lines with CRISPR/Cas9 expression vector system. HiBit gene knock-in single cells were selected, passaged and used for the experiments.
For cell culture, DMEM (Gibco, Cat. No. 11995-065; Lot. No. 2562497), FBS (Gibco, Cat. No. 16000-044; Lot. No. 2511328P), Penicillin/Streptomycin (PS) (Gibco, Cat. No. 15140-122; Lot. No. 2585636), 90 mm^2 cell culture dish (SPL, Cat. No. 20100), 96-well white plate, PBS pH 7.4 (Gibco, […]), TrypLE™ Express (Gibco, Cat. No. 12605-010; Lot. No. 2522525), counting chamber (hematocytometer) (Hirschmann, Cat. No. 8100204; Lot. No. 8021087) and 0.4% Trypan Blue solution (DYNEBIO, Cat. No. CBT3710; Lot. No. 20231017) were used. Cells were cultured in DMEM supplemented with 10% FBS and 1% PS and incubated in CO2 incubator (Thermo, Cat. No. 4111) at 37° C., 5% CO2 condition.
HeLa LgBit (AURKA-HiBit KI) cell lines were cultured in 90 mm^2 cell culture dish, and 3×10^4 cells in […] of total medium volume were seeded and incubated for 18 hours in CO2 incubator. Then, Eudurazine (Promega, Cat. No. N247B; Lot. No. 495218) was added to each well to make up 1% of the total volume, followed by further incubation for 2 hours in CO2 incubator.
The present compounds were fully dissolved in DMSO (Sigma-Aldrich Cat. No. D2438, Lot. No. RNBL7287) and 10 nM or 100 nM of total concentration were used in the experiment. After adding the compounds in each well of 96-well white plate, the plate was placed in the plate reader (BMG Labtech, CLARIOstar Plus) for real-time analysis. The wavelength for analysis was set to […], and the luminescence value was measured after 12 hours. The luminescence value was analyzed through an Excel program.
A general note: HiBiT is a short tag that completes a luciferase, so light tracks the accessible tagged protein.

In the case of `O=C1CCC(Nc2ccc(N3CC4CN(CC5CN(C(=O)c6ccc(Nc7ncc(F)c(Nc8ccc(C(=O)Nc9ccccc9Cl)cc8)n7)cc6)C5)CC4C3)cc2)C(=O)N1` (centres unmarked) [Compound 34, N-(2-chlorophenyl)-4-((2-((4-(3-((5-(4-((2,6-dioxopiperidin-3-yl)amino)phenyl)hexahydropyrrolo[3,4-c]pyrrol-2(1H)-yl)methyl)azetidine-1-carbonyl)phenyl)amino)-5-fluoropyrimidin-4-yl)amino)benzamide], the “luminescence value (Level)” value by setting is: (10 nM compound) “B (B is 0.3 to 0.5)”; (100 nM compound) “A (A is <0.2)”.
`O=C1CCC(Nc2ccc(N3CCN(C[C@@H]4[C@H]5CN(C(=O)c6ccc(Nc7ncc(F)c(Nc8ccc(C(=O)Nc9ccccc9Cl)cc8)n7)cc6)C[C@@H]45)CC3)cc2)C(=O)N1` (stereo partly drawn) [Compound 37, N-(2-chlorophenyl)-4-((2-((4-((1R,5S,6s)-6-((4-(4-((2,6-dioxopiperidin-3-yl)amino)phenyl)piperazin-1-yl)methyl)-3-azabicyclo[3.1.0]hexane-3-carbonyl)phenyl)amino)-5-fluoropyrimidin-4-yl)amino)benzamide]: the “luminescence value (Level)” value is reported as “B (B is 0.3 to 0.5)” (10 nM compound) and “B (B is 0.2 to 0.4)” (100 nM compound).
In the same order, the values of `O=C1CCC(Nc2ccc(N3CCCN(C[C@H]4CC[C@H](NC(=O)c5ccc(Nc6ncc(F)c(Nc7ccc(C(=O)Nc8ccccc8Cl)cc7)n6)cc5)CC4)CC3)cc2)C(=O)N1` (some centres unmarked) [Compound 39, N-(2-chlorophenyl)-4-((2-((4-(((1r,4r)-4-((4-(4-((2,6-dioxopiperidin-3-yl)amino)phenyl)-1,4-diazepan-1-yl)methyl)cyclohexyl)carbamoyl)phenyl)amino)-5-fluoropyrimidin-4-yl)amino)benzamide] are “B (B is 0.3 to 0.5)” and “A (A is <0.2)”.
In the same order, the values of `O=C1CCC(Nc2ccc(N3CCC(CN4C[C@@H]5[C@H](C4)[C@H]5NC(=O)c4ccc(Nc5ncc(F)c(Nc6ccc(C(=O)Nc7ccccc7Cl)cc6)n5)cc4)CC3)cc2)C(=O)N1` (stereo partly drawn) [Compound 40, N-(2-chlorophenyl)-4-((2-((4-(((1R,5S,6s)-3-((1-(4-((2,6-dioxopiperidin-3-yl)amino)phenyl)piperidin-4-yl)methyl)-3-azabicyclo[3.1.0]hexan-6-yl)carbamoyl)phenyl)amino)-5-fluoropyrimidin-4-yl)amino)benzamide] are “B (B is 0.3 to 0.5)” and “A (A is <0.2)”.
In the same order, the values of `O=C1CCC(Nc2ccc(N3CCC(CN4C[C@H]5C[C@H](NC(=O)c6ccc(Nc7ncc(F)c(Nc8ccc(C(=O)Nc9ccccc9Cl)cc8)n7)cc6)C[C@H]5C4)CC3)cc2)C(=O)N1` (stereo partly drawn) [Compound 41, N-(2-chlorophenyl)-4-((2-((4-(((3aR,5s,6aS)-2-((1-(4-((2,6-dioxopiperidin-3-yl)amino)phenyl)piperidin-4-yl)methyl)octahydrocyclopenta[c]pyrrol-5-yl)carbamoyl)phenyl)amino)-5-fluoropyrimidin-4-yl)amino)benzamide] are “B (B is 0.3 to 0.5)” and “B (B is 0.2 to 0.4)”.
For `O=C1CCC(Nc2ccc(N3CC4(CN(CC5CCN(C(=O)c6ccc(Nc7ncc(F)c(Nc8ccc(C(=O)Nc9ccccc9Cl)cc8)n7)cc6)CC5)C4)C3)cc2)C(=O)N1` (centres unmarked) [Compound 42, N-(2-chlorophenyl)-4-((2-((4-(4-((6-(4-((2,6-dioxopiperidin-3-yl)amino)phenyl)-2,6-diazaspiro[3.3]heptan-2-yl)methyl)piperidine-1-carbonyl)phenyl)amino)-5-fluoropyrimidin-4-yl)amino)benzamide], the “luminescence value (Level)” value was “B (B is 0.3 to 0.5)” (10 nM compound) and “A (A is <0.2)” (100 nM compound).
In the same order, the values of `O=C1CCC(NC(=O)c2ccc(N3CCC(CN4CCN(C(=O)Cc5ccc(Nc6ncc(F)c(Nc7ccc(C(=O)Nc8ccccc8Cl)cc7)n6)cc5)CC4)CC3)cc2)C(=O)N1` (centres unmarked) [Compound 46, N-(2-chlorophenyl)-4-((2-((4-(2-(4-((1-(4-((2,6-dioxopiperidin-3-yl)carbamoyl)phenyl)piperidin-4-yl)methyl)piperazin-1-yl)-2-oxoethyl)phenyl)amino)-5-fluoropyrimidin-4-yl)amino)benzamide] are “C (C is 0.5 to 0.7)” and “B (B is 0.2 to 0.4)”.
In the same order, the values of `O=C1CCC(NC(=O)c2cccc(N3CCC(CN4CCN(C(=O)Cc5ccc(Nc6ncc(F)c(Nc7ccc(C(=O)Nc8ccccc8Cl)cc7)n6)cc5)CC4)CC3)c2)C(=O)N1` (centres unmarked) [Compound 47, 3-(4-((4-(2-(4-((4-((4-((2-chlorophenyl)carbamoyl)phenyl)amino)-5-fluoropyrimidin-2-yl)amino)phenyl)acetyl)piperazin-1-yl)methyl)piperidin-1-yl)-N-(2,6-dioxopiperidin-3-yl)benzamide] are “D (D is 0.7 to 0.8)” and “B (B is 0.2 to 0.4)”.
Turning to `O=C1CCN(c2ccc(N3CCN(CCC4CCN(NC(=O)c5ccc(Nc6ncc(F)c(Nc7ccc(C(=O)Nc8ccccc8Cl)cc7)n6)cc5)CC4)CC3)cc2)C(=O)N1` [Compound 54, N-(2-chlorophenyl)-4-[[2-[4-[[4-[2-[4-[4-(2,4-dioxohexahydropyrimidin-1-yl)phenyl]piperazin-1-yl]ethyl]-1-piperidyl]carbamoyl]anilino]-5-fluoro-pyrimidin-4-yl]amino]benzamide], the “luminescence value (Level)” value is, setting by setting: (10 nM compound) “B (B is 0.3 to 0.5)”; (100 nM compound) “B (B is 0.2 to 0.4)”.
In the case of `Cc1cc(Nc2nc(Nc3ccc(C(=O)NN4CCC(CCN5CCN(c6ccc(C7CCC(=O)NC7=O)cc6)CC5)CC4)cc3)ncc2F)n[nH]1` (centres unmarked) [Compound 59, N-(4-(2-(4-(4-(2,6-dioxopiperidin-3-yl)phenyl)piperazin-1-yl)ethyl)piperidin-1-yl)-4-((5-fluoro-4-((5-methyl-1H-pyrazol-3-yl)amino)pyrimidin-2-yl)amino)benzamide], the “luminescence value (Level)” value by setting is: (10 nM compound) “C (C is 0.5 to 0.7)”; (100 nM compound) “A (A is <0.2)”.
In the same order, the values of `O=C1CCC(c2ccc(N3CCC4(CC3)CC(C3CCN(NC(=O)c5ccc(Nc6ncc(F)c(Nc7ccc(C(=O)Nc8ccccc8Cl)cc7)n6)cc5)CC3)C4)cc2)C(=O)N1` (centres unmarked) [Compound 60, N-(2-chlorophenyl)-4-((2-((4-((4-(7-(4-(2,6-dioxopiperidin-3-yl)phenyl)-7-azaspiro[3.5]nonan-2-yl)piperidin-1-yl)carbamoyl)phenyl)amino)-5-fluoropyrimidin-4-yl)amino)benzamide] are “D (D is 0.7 to 0.8)” and “B (B is 0.2 to 0.4)”.
As for `O=C1CCC(c2ccc(N3CCN(CCC4CCN(NC(=O)c5ccc(Nc6ncc(F)c(Nc7cc(C8CC8)[nH]n7)n6)cc5)CC4)CC3)cc2)C(=O)N1` (centres unmarked) [Compound 61, 4-((4-((5-cyclopropyl-1H-pyrazol-3-yl)amino)-5-fluoropyrimidin-2-yl)amino)-N-(4-(2-(4-(4-(2,6-dioxopiperidin-3-yl)phenyl)piperazin-1-yl)ethyl)piperidin-1-yl)benzamide], the “luminescence value (Level)” value runs as follows: (10 nM compound) “C (C is 0.5 to 0.7)”; (100 nM compound) “A (A is <0.2)”.
In the same order, the values of `O=C1CCC(c2ccc(N3CCC(CN4CCC(CNC(=O)c5ccc(Nc6ncc(F)c(Nc7ccc(C(=O)Nc8ccccc8Cl)cc7)n6)cc5)CC4)CC3)cc2)C(=O)N1` (centres unmarked) [Compound 62, N-(2-chlorophenyl)-4-((2-((4-(((1-((1-(4-(2,6-dioxopiperidin-3-yl)phenyl)piperidin-4-yl)methyl)piperidin-4-yl)methyl)carbamoyl)phenyl)amino)-5-fluoropyrimidin-4-yl)amino)benzamide] are “B (B is 0.3 to 0.5)” and “A (A is <0.2)”.

For the origin of these results see US20260226071A1, “2, 4-DIANILINOPYRIMIDINE-BASED AURORA-A KINASE SELECTIVE DEGRADATION INDUCING COMPOUNDS” (UPPTHERA, INC., priority 2023, published 2026).
